Legend:
[1] = Safety in the clinical study (treatment-emergent adverse events, laboratory tests); format: in vivo, human; conditions: oral 200 mg/day for 2 weeks, n = 50
Method: (§1) The inclusion criteria were as follows: 1) presence of symptoms for at least one month, 2) number of leukocytes in synovial fluid < 2000/ml, 3) pain on a visual analogue scale (VAS) ≥ 2 at rest and 4) duration of stiffness in the morning ≤ 30 min. The following exclusion criteria were applied: 1) pregnancy or breastfeeding, 2) history of severe renal, hepatic, cardiac, gastrointestinal or haematological diseases, 3) presence of malignant tumours, 4) presence of neurological or psychiatric disorders, 5) atopy or allergic disorders, 6) diabetes mellitus or other endocrine disorders, 7) coagulation disorders, 8) history of peptic ulcer disease, 9) use of corticosteroid in the four weeks prior to the study and 10) use of NSAIDs in the two weeks prior to the study. According to the Kellgren-Lawrence classification system, 61.3% and 38.7% of patients in the study had scores of 1 and 2, respectively.
Safety was evaluated by recording treatment-emergent adverse events and changes with respect to the baseline in clinical laboratory tests, in vital signs and in objective examinations, all of which were performed during visits at weeks 1 and 2. Clinically relevant changes in laboratory values were defined as: • aspartate aminotransferase (AST) and/or alanine transaminase (ALT) ≥ 3 × upper limit of normal (ULN), • creatinine ≥ 1.3 × ULN, • blood urea nitrogen (BUN) ≥ 2 × ULN, • decrease in haematocrit value ≥ 5 percentage points with respect to the baseline and • decrease in haemoglobin value ≥ 2 g/dl from baseline.

substance P = test: Serum substance P levels (ELISA) in the clinical study; conditions: oral 200 mg/day, n = 50
human neutrophils = test: MTT cell viability test; format: cell-based; conditions: 1% solution, 24 hours; untreated cells = 100%
Method: Human neutrophils were isolated from whole blood samples taken from 10 healthy volunteers (5 men and 5 women, mean age: 34.1 ± 3.7 years) using the EasySep™ Direct human neutrophil isolation kit ([…] Technologies, Vancouver, Canada). After isolation, neutrophils were resuspended at a concentration of 5 * 10^6 cells/ml in Hank's balanced saline solution (37°C) containing 10 mM of HEPES pH 7.4, 1.6 mM Ca^2+ and not Mg^2+.
Cell viability was determined using the MTT test kit (Promega, Madison, WI, USA) according to the manufacturer's protocol (MTT: 3-(4,5-dimethylthiazol-2-yl)-2,5-diphenyltetrazolium bromide). In order to determine the cytotoxicity of the herbal extract of the invention, the cells were incubated with aqueous solutions of the herbal extract of the invention at three different concentrations (1%, 3% and 5%) for 24 hours. The cultures of the control group were not treated and the viability thereof was set to 100%. […] Int J Pharm Sei (2012) 3: 2325-2336]. […] Absorbance was subsequently measured with a microplate reader (Bio-Tek, Winooski, VT, USA) at a test wavelength of 595 nm and a reference wavelength of 690 nm. The optical density (OD) was calculated as the […]. The viability percentage was calculated using the following formula: (OD of treated sample / control OD) x 100.

PGE2 = PGE2 enzyme immunoassay in LPS-stimulated neutrophils; format: cell-based, human; conditions: 5 µg/ml of LPS plus test substance 1%, 24 hours
Method: Human neutrophils were isolated from whole blood samples taken from 10 healthy volunteers (5 men and 5 women, mean age: 34.1 ± 3.7 years) using the EasySep™ Direct human neutrophil isolation kit ([sequence] Technologies, Vancouver, Canada). After isolation, neutrophils were resuspended at a concentration of 5 * 10^6 cells/ml in Hank's balanced saline solution (37°C) containing 10 mM of HEPES pH 7.4, 1.6 mM Ca^2+ and not Mg^2+.
Experiments were conducted on RPMI medium (RPMI: Rosewell Park Memorial Institute, cation-deficient medium Ca2+ and Mg2+ commonly used for white blood line cells) supplemented with 1% fetal bovine serum (37°C, 5% CO2, 95% humidity) after seeding neutrophils (5x10^5 cells/well) in a 96-well plate.
Evaluation of PGE2 concentrations in each well under six different experimental conditions was conducted using a commercially available competitive PGE2 enzyme immunoassay kit (GE Healthcare, Milwaukee, WI, USA). All tests were conducted three times.

[2] = system: patients with mild to moderate osteoarthritis of the knee; test: Randomised, single-blind, active-controlled pilot clinical study, clinical endpoints (VAS, range of motion, WOMAC); format: in vivo, human; conditions: oral 200 mg/day, n = 50; for WOMAC scores Stiffness: range 0-8; for WOMAC scores Pain: range 0-20; for WOMAC scores Physical functionality: range 0-68; for WOMAC scores Total: range 0 to 96
Method: as §1
The study period was two weeks.
Patients (n = 150) were randomised into three study groups (1:1:1 ratio). The randomisation sequence was generated by a special software.
A total of three assessments were performed (at baseline, one week and at the end of the 2-week treatment period).
Clinical endpoints included: • 1) patient's evaluation of the arthritis pain score (VAS) at rest (range: 0-10; where 0 is no pain and 10 is maximum pain), • 2) patient's evaluation of the arthritis pain score (VAS) at movement (range: 0-10; where 0 is no pain and 10 is maximum pain), • 3) joint motion range (degrees) and • 4) WOMAC (Western Ontario and McMaster University) index score [Salaffi et al. Osteoarthritis cartilage 2003; 11: 551-60].
WOMAC score consists of sub-scales that measure pain (range: 0-20; where 0 is no pain and 20 is the maximum pain), stiffness (range: 0-8, where 0 is no stiffness and 8 is the maximum stiffness) and physical functionality (range: 0-68, where 0 is the best functionality and 68 is the worst functionality). The resulting total composite score ranges from 0 to 96.

SMILES: Cc1ccc(-c2cc(C(F)(F)F)nn2-c2ccc(S(N)(=O)=O)cc2)cc1 [Celecoxib]
- Gastrointestinal adverse events: Constipation [1]: 2 (4%) number of patients (percentages in brackets)
- Gastrointestinal adverse events: Nausea [1]: 2 (4%) number of patients (percentages in brackets)
- Other adverse events: Headache [1]: 3 (6%) number of patients (percentages in brackets)
- Other adverse events: Itching [1]: 1 (2%) number of patients (percentages in brackets)
- changes with respect to the baseline in laboratory safety tests [1]: no changes with respect to the baseline
- SP (serum substance P) (substance P; Baseline): 436 ± 95 pg/mL
- SP (serum substance P) (substance P; End of study (2 weeks)): 299 ± 64 pg/mL
- SP (serum substance P) (substance P; One week): 358 ± 78 † pg/ml
- cell viability (MTT), % of the control value (human neutrophils): 90 ± 2%
- PGE2 levels (PGE2): 19.21 ± 2.39 pg/well
- Pain at motion, VAS (0-10) ([2]; Baseline): 3.8 ± 0.6
- Pain at rest, VAS (0-10) ([2]; Baseline): 2.9 ± 0.4
- Range of motion (degrees) ([2]; Baseline): 134 ± 10 degrees
- WOMAC scores Stiffness ([2]; Baseline): 1.4 ± 0.3
- WOMAC scores Pain ([2]; Baseline): 5.7 ± 0.8
- WOMAC scores Physical functionality ([2]; Baseline): 20.5 ± 3.2
- WOMAC scores Total ([2]; Baseline): 27.6 ± 3.8
- Pain at motion, VAS (0-10) ([2]; End of study (2 weeks)): 2.2 ± 0.4
- Pain at rest, VAS (0-10) ([2]; End of study (2 weeks)): 1.5 ± 0.4
- Range of motion (degrees) ([2]; End of study (2 weeks)): 173 ± 19 degrees
- WOMAC scores Stiffness ([2]; End of study (2 weeks)): 0.7 ± 0.1
- WOMAC scores Pain ([2]; End of study (2 weeks)): 3.0 ± 0.9
- WOMAC scores Physical functionality ([2]; End of study (2 weeks)): 11.4 ± 1.7
- WOMAC scores Total ([2]; End of study (2 weeks)): 15.1 ± 2.2
- Pain at motion, VAS (0-10) ([2]; One week): 2.9 ± 0.5
- Pain at rest, VAS (0-10) ([2]; One week): 2.0 ± 0.3
- Range of motion (degrees) ([2]; One week): 160 ± 15 degrees
- WOMAC scores Stiffness ([2]; One week): 1.0 ± 0.2
- WOMAC scores Pain ([2]; One week): 4.1 ± 0.9
- WOMAC scores Physical functionality ([2]; One week): 14.6 ± 2.1
- WOMAC scores Total ([2]; One week): 19.7 ± 2.9

From EP3996814B1, “USE OF A HERBAL EXTRACT COMPRISING VERBASCOSIDE AND AUCUBIN FOR THE TREATMENT OF OSTEOARTHRITIS OF THE KNEE” (Labiotre S.r.l., priority 2019, dated 2021)
